Reference: patent US6326139A (priority 1997, dated 2001)
Entries after “also recorded” stand apart in the source; their conditions may differ. Where two headings read alike, the source gives them in different places.

What was measured:
[1] = target: T1, "atypical" BuChE (Homo sapiens, UniProt P06276, D98G)
Target sequence in this assay (P06276 29-602 D98G): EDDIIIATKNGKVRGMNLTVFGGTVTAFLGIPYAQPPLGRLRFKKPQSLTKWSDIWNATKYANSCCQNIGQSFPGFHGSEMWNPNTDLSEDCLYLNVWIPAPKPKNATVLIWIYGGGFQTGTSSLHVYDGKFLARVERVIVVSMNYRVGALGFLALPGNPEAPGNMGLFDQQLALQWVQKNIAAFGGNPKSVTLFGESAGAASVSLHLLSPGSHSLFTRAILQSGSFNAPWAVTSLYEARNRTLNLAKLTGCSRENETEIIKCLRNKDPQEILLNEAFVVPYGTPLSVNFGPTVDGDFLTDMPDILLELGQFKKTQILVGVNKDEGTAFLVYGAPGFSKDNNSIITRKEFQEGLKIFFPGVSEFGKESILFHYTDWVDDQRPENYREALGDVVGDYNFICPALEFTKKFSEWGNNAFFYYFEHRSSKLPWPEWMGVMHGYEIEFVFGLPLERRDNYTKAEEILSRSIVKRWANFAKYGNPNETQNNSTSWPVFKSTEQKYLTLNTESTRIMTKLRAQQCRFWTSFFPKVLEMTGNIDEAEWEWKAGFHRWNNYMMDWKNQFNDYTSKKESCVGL
Experimental: Recombinant normal and "atypical" BuChE were produced in Xenopus oocytes microinjected with in vitro transcribed BuChEmRNAs prepared from the corresponding cDNA types (Neville et al, 1990a).
Free binding sites were blocked with PBS-T buffer (144 mM NaCl, 20 mM Na phosphate pH 7.4, 0.05% Tween 20 and 0.01% Tymerosal) for 60 minutes at 37° C. […] Plates were washed three times with PBS-T prior to use.
Inactivation and reactivation measurements: Antibody-immobilized enzymes were exposed to the tested anti-ChEs in PBS-T buffer for varying times (0.5 to 80 minutes) following an initial determination of catalytic activities. At the noted time points, plates were washed three times with PBS-T and remaining substrate hydrolysis rates were determined (Loewenstein et al., 1993a). Spontaneous reactivation was measured for immobilized recombinant ChEs following complete inhibition, three washes with PBS-T, and subsequent incubation for the noted time and activity determination.

[2] = system: serum "atypical" BuChE (G/G); test: Inactivation of immobilized serum BuChE, "atypical"; assay type: biochemical, human; conditions: for rate of irreversible inactivation versus normal: "atypical" serum BuChE
[3] = system: recombinant human AChE; test: Spontaneous reactivation after complete inhibition, AChE; assay type: biochemical
[4] = target: AChE (E6) (Homo sapiens, UniProt P22303); test: Inactivation by carbamate inhibitors, AChE E6; assay type: biochemical; design: made in house; host or cells: Xenopus oocytes injected with ACHE DNA; conditions: inhibitor concentration in parentheses in table
Excerpt: (§1) reagent concentration (in parentheses), to calculate second order rate

[5] = target: AChE (E5) (Homo sapiens, UniProt P22303); test: Inactivation by carbamate inhibitors, AChE E5; assay type: biochemical; design: made in house; host or cells: Xenopus oocytes injected with ACHE DNA; conditions: inhibitor concentration in parentheses in table
Excerpt: as §1

[6] = system: recombinant human BuChE, normal and "atypical"; test: Spontaneous reactivation after complete inhibition, BuChE; assay type: biochemical
[7] = target: T2, recombinant normal BuChE (Homo sapiens, UniProt P06276); test: Inactivation by carbamate inhibitors, normal BuChE; assay type: biochemical; conditions: for inactivation rate compared with AChE: common BuChE; for second order rate constant ki for inactivation: recombinant normal BuChE, inhibitor concentration in parentheses in table
T2 construct: made in house; host or cells: Xenopus oocytes injected with in vitro transcribed mRNA
Excerpt: as §1

[8] = system: AChE in term placenta sections; test: Cytochemical ChE staining, term placenta; design: species or system human; conditions: 10^-5 M
[9] = system: BuChE in early placenta sections; test: Cytochemical ChE staining, early placenta; design: species or system human; conditions: 10^-5 M
[10] = system: recombinant human ChEs (all of the examined enzymes); test: Spontaneous reactivation after complete inhibition, all enzymes; assay type: biochemical
[11] = system: serum normal BuChE (D/D); test: Inactivation of immobilized serum BuChE, normal; assay type: biochemical, human; conditions: 30 minutes; normal enzyme
[12] = system: heterozygous serum BuChE (D/G); test: Inactivation of immobilized serum BuChE, heterozygote; assay type: biochemical, human; conditions: 30 minutes
[13] = target: T1, "atypical" BuChE; conditions: cited from earlier work
Target sequence in this assay (P06276 29-602 D98G limits assumed): as the sequence (P06276 29-602 D98G) above

[14] = target: T3, Rec. BuChE D/D (normal) (Homo sapiens, UniProt P06276); test: Inhibition by cocaine / α-solanine, recombinant D/D; assay type: biochemical
T3 construct: made in house; host or cells: Xenopus oocytes (microinjected in vitro transcribed mRNA)

[15] = target: T4, Rec. AChE (Homo sapiens, UniProt P22303); test: Inhibition by cocaine, recombinant AChE; assay type: biochemical
T4 construct: made in house; host or cells: Xenopus oocytes (injected ACHE DNA, CMV promoter)

[16] = target: T5, Serum BuChE G/G ("atypical") (Homo sapiens, UniProt P06276, D98G); test: Inhibition by cocaine / α-solanine, serum G/G; assay type: biochemical
T5 construct: applicants prepared serum from an individual who had experienced succinylcholine-induced apnea; from tissue; host or cells: human serum, homozygous carrier of the atypical allele

[17] = target: T6, Rec. BuChE G/G ("atypical") (Homo sapiens, UniProt P06276, D98G); test: Inhibition by cocaine / α-solanine, recombinant G/G; assay type: biochemical
T6 construct: made in house; host or cells: Xenopus oocytes (microinjected in vitro transcribed mRNA)

[18] = target: T7, normal BuChE (serum and recombinant) (Homo sapiens, UniProt P06276); test: Inhibition by cocaine / α-solanine, normal enzymes; assay type: biochemical
T7 construct: made in house; host or cells: Xenopus oocytes (recombinant) and normal human serum (native), reported together

[19] = target: T8, Serum BuChE D/D (normal) (Homo sapiens, UniProt P06276); test: Inhibition by cocaine / α-solanine, serum D/D; assay type: biochemical
T8 construct: with enzyme from normal serum; from tissue; host or cells: human serum, normal homozygote

[20] = target: T1, "atypical" BuChE; conditions: cited from earlier work; remark: listed apart in the source
Target sequence in this assay (P06276 29-602 D98G limits assumed): as the sequence (P06276 29-602 D98G) above

[21] = system: myasthenia gravis patients; conditions: in vivo; cited from earlier work
[22] = system: ChE; conditions: cited from earlier work
[23] = system: AD patients; conditions: in vivo; cited from earlier work
[24] = system: H.K., homozygous for the "atypical" allele; conditions: in vivo
[25] = system: "atypical" BuChE in H.K.'s serum; test: Serum BuChE hydrolysis, H.K.'s serum; assay type: biochemical, human
[26] = system: PD-patient; conditions: in vivo; cited from earlier work
[27] = system: patients suffering from mild to moderate AD; conditions: cited from earlier work
[28] = system: BuChE in sera from heterozygotes
[29] = system: THA treated patients; conditions: in vivo, cited from earlier work
[30] = system: Serum BuChE D/G (heterozygote); assay type: biochemical, human; conditions: read-out: IC50 α-solanine
[31] = system: Rec. BuChE D/G (1:1 mixture); assay type: biochemical, human; conditions: read-out: IC50 α-solanine
[32] = target: serum and recombinant "atypical" BuChE (Homo sapiens, UniProt P06276, D98G); test: Inhibition by cocaine / α-solanine, "atypical" enzymes; assay type: biochemical; conditions: for activity of "atypical" enzyme at high α-solanine: concentrations higher than 5 μM, FIG. 3
Sequence of serum and recombinant "atypical" BuChE (P06276 29-602 D98G limits assumed): as the sequence (P06276 29-602 D98G) above

T2 sequence (P06276 29-602): as the sequence (P06276 29-602 D98G) above, with G70D counted along it
Sequence of AChE (E6) (P22303 32-614): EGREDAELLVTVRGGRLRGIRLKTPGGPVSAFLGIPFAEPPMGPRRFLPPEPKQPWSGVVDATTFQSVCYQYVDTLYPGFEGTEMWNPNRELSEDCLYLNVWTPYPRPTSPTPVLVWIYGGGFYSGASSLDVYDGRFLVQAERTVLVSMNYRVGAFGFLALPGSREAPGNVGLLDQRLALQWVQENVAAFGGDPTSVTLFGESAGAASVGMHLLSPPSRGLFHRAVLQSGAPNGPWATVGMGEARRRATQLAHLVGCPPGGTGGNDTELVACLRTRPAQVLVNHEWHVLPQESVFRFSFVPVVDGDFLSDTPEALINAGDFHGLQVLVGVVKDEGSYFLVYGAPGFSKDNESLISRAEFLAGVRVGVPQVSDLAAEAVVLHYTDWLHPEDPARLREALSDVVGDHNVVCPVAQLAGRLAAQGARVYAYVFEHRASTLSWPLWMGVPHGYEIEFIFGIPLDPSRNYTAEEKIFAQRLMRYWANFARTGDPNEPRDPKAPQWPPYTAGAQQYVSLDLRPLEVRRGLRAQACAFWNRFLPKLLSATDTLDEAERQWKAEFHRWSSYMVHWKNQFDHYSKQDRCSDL
Sequence of AChE (E5) (P22303-4 with tags, fused parts or gaps limits assumed): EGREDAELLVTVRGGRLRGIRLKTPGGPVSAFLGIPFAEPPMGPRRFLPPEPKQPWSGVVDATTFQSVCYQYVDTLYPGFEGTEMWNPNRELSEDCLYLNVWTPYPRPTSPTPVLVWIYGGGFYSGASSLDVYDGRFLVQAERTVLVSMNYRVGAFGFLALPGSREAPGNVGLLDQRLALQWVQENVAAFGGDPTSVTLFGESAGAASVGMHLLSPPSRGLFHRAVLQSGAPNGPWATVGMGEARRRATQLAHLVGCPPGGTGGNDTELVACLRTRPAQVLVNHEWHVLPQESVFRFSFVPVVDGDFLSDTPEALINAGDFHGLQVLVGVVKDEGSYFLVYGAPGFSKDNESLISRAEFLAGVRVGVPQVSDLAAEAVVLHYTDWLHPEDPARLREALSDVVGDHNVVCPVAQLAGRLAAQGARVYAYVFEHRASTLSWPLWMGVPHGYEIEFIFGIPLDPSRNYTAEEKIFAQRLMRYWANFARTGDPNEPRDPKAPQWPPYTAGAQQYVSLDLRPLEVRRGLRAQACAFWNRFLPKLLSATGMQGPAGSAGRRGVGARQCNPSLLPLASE
T7 sequence (P06276 29-602): as the sequence (P06276 29-602 D98G) above, with G70D counted along it
T3 sequence (P06276 29-602): as the sequence (P06276 29-602 D98G) above, with G70D counted along it
T8 sequence (P06276 29-602): as the sequence (P06276 29-602 D98G) above, with G70D counted along it
T6 sequence (P06276 29-602 D98G): as the sequence (P06276 29-602 D98G) above
T5 sequence (P06276 29-602 D98G): as above
T4 sequence (P22303 32-614): as the sequence (P22303 32-614) above

## CCCCCCCNC(=O)Oc1ccc2c(c1)C1(C)CCN(C)C1N2C (single isomer, unassigned) [N-heptyl physostigmine]
[1]
  inactivation rate of "atypical" BuChE, compared: considerably lower rates
[2]
  rate of irreversible inactivation versus normal: much slower than its normal counterpart
[3]; both AChE forms, N-heptyl physostigmine
  spontaneous reactivation, % of original activity: 5%
[4]
  second order rate constant ki for inactivation: 26700 M⁻¹ s⁻¹
[5]
  second order rate constant ki for inactivation: 23300 ± 6700 M⁻¹ s⁻¹
[6]; by 20 minutes, normal and "atypical" BuChE
  spontaneous reactivation, % of original activity: 10%
[7]
  inactivation rate compared with AChE: higher than or equal to ACHE
  second order rate constant ki for inactivation: 183000 ± 50000 M⁻¹ s⁻¹

## C=CC[N+](C)(C)c1ccc(CCC(=O)CCc2ccc([N+](C)(C)CC=C)cc2)cc1 [BW284C51, 1,5-bis-(4-allyldimethylammoniumphenyl)-pentane-3-one dibromide]
[8]
  staining of term placenta: largely suppressed staining in term
[9]
  staining of early placenta sections: not early placenta

## CCN(C)C(=O)Oc1cccc([C@H](C)N(C)C)c1 [SDZ ENA-713]
[1]
  inactivation rate of "atypical" BuChE, compared: considerably lower rates
[10]
  spontaneous reactivation, % of original activity: ≤ 8%
[2]; 30 minutes, "atypical" BuChE
  decrease in activity: about 40%
[2]
  rate of irreversible inactivation versus normal: much slower than its normal counterpart
[4]
  second order rate constant ki for inactivation: 71.7 M⁻¹ s⁻¹
[11]
  loss of activity: 95%
[5]
  second order rate constant ki for inactivation: 55 ± 10 M⁻¹ s⁻¹
[12]
  loss of activity: 80%
[7]
  inactivation rate compared with AChE: higher than or equal to ACHE
  second order rate constant ki for inactivation: 233 ± 50 M⁻¹ s⁻¹

## CN(C)C(=O)Oc1cc(OC(=O)N(C)C)cc(C(O)CNC(C)(C)C)c1 (centres unmarked) [bambuterol]
[13]
  higher IC50 value, "atypical" versus wild-type: at least 10 fold
  higher Ki value, "atypical" versus wild-type: at least 10 fold

## COC(=O)[C@H]1[C@@H](OC(=O)c2ccccc2)C[C@@H]2CC[C@H]1N2C [cocaine]
[14]
  IC50: 280 ± 20 µM
[15]
  IC50: 3450 ± 2150 µM
[16]
  IC50: 5200 ± 300 µM
[17]
  IC50: 4050 ± 50 µM
[18]
  IC50: 300 µM
[19]
  IC50: 320 ± 80 µM

## CCCCOc1cc(C(=O)NCCN(CC)CC)c2ccccc2n1 [dibucaine]
[20]
  hydrolysis by the affected ("atypical") enzyme: inability

## CC[N+](C)(C)c1cccc(O)c1 [edrophonium]
[21]
  relief of symptoms: immediate, but brief, relief of the characteristic symptoms

## CC(C)NP(=O)(NC(C)C)OP(=O)(NC(C)C)NC(C)C [iso-OMPA, tetraisopropylpyrophosphoramide]
[8]
  staining of term placenta: no reduction in labeling intensity
[13]
  sensitivity of atypical variant to inhibitors: much less sensitive
[9]
  staining of early placenta sections: remained totally unlabeled

## CN(C)C(=O)Oc1cccc([N+](C)(C)C)c1 [neostigmine]
[22]
  potency / affinity: potency equal to or greater than physostigmine

## CNC(=O)Oc1ccc2c(c1)[C@]1(C)CCN(C)[C@@H]1N2C [physostigmine]
[1]
  inactivation rate of "atypical" BuChE, compared: considerably lower rates
[2]
  rate of irreversible inactivation versus normal: much slower than its normal counterpart
[13]
  higher IC50 value, "atypical" versus wild-type: at least 10 fold
  higher Ki value, "atypical" versus wild-type: at least 10 fold
  sensitivity of atypical variant to inhibitors: much less sensitive
[3]; 45 minutes, AChE
  spontaneous reactivation, % of original activity: up to 90%
[23]
  effect on cognitive functions: small, short-term positive effect on cognitive functions
[7]
  inactivation rate compared with AChE: higher than or equal to ACHE
  second order rate constant ki for inactivation: 6330 ± 2670 M⁻¹ s⁻¹

## CN(C)C(=O)Oc1ccc[n+](C)c1 [pyridostigmine]
[24]
  adverse symptoms: insomnia, weight loss and general fatigue, which worsened consistently, and a deep depression
  time of gradual improvement following discontinuation: 10 weeks
[2]
  rate of irreversible inactivation versus normal: much slower than its normal counterpart
[3]; AChE, pyridostigmine, FIG. 4
  spontaneous reactivation, % of original activity: 50%
[4]
  second order rate constant ki for inactivation: 367 ± 150 M⁻¹ s⁻¹
[5]
  second order rate constant ki for inactivation: 417 M⁻¹ s⁻¹
[6]; BuChE, pyridostigmine, FIG. 4
  spontaneous reactivation, % of original activity: 10%
[7]
  second order rate constant ki for inactivation: 31.7 ± 3.3 M⁻¹ s⁻¹

## C[N+](C)(C)CCOC(=O)CCC(=O)OCC[N+](C)(C)C [succinylcholine]
[25]
  hydrolysis of succinylcholine by H.K.'s serum BuChE: totally incapable of hydrolyzing succinylcholine; also recorded: cannot hydrolyze succinylcholine
[20]
  hydrolysis by the affected ("atypical") enzyme: unable to hydrolyze succinylcholine
[20]; listed as succinyl choline
  hydrolysis by the affected ("atypical") enzyme: unable to hydrolyze succinyl choline; also recorded: inability

## Nc1c2c(nc3ccccc13)CCCC2 [tacrine, 1,2,3,4-tetrahydro-9 aminoacridine]
[26]
  PD symptoms: worsening of the symptoms
[27]; 30 weeks
  improvement in AD: statistically significant, dose-related improvements
[27]; in 2% of the cases
  serum level of the aminotransferase: 20 times the upper limit of normal value
[27]; in vivo
  cases reaching 20 times the upper limit of normal aminotransferase: 2%
  serum level of the aminotransferase, usual: less than three times the upper limit of normal value
[28]
  effect of 1 μm of the drug: intermediate levels of activity
[29]
  patients with cholinergic side-effects / deficits: up to 15%
[29]; listed as THA
  patients with cholinergic side-effects / deficits: over 10%

## C[C@H]1CC[C@@H]2[C@@H](C)[C@H]3[C@H](C[C@H]4[C@@H]5CC=C6C[C@@H](O[C@@H]7O[C@H](CO)[C@H](O)[C@H](O[C@@H]8O[C@H](CO)[C@@H](O)[C@H](O)[C@H]8O)[C@H]7O[C@@H]7O[C@@H](C)[C@H](O)[C@@H](O)[C@H]7O)CC[C@]6(C)[C@H]5CC[C@]34C)N2C1 [α-solanine]
[14]; Rec. BuChE D/D, read-out: IC50 α-solanine
  IC50: 1.95 ± 1.04 µM
[16]; Serum BuChE G/G, read-out: IC50 α-solanine
  IC50: 165 µM
[30]
  IC50: 3.61 ± 0.81 µM
[31]
  IC50: 3.54 ± 2.41 µM
[17]; Rec. BuChE G/G, read-out: IC50 α-solanine
  IC50: 171 µM
[18]; normal, read-out: IC50 for α-solanine
  IC50: 2.5 µM
[19]; Serum BuChE D/D, read-out: IC50 α-solanine
  IC50: 2.88 ± 0.33 µM
[32]; "atypical"
  IC50: 170 µM
[32]; "atypical" vs normal
  IC50 difference for α-solanine: > 100 fold
[32]
  activity of "atypical" enzyme at high α-solanine: retains higher activity than the normal and the heterozygote enzymes
[32]; listed as α-solanidine
  activity of "atypical" enzyme at high α-solanine: shows higher activities than the normal, D70 enzyme
[32]; up to 10 μM
  inhibition of "atypical" enzyme by α-solanine: relatively inert
